The values that follow come from ChEMBL document CHEMBL1795319, “Design, synthesis and antifungal evaluation of 1-(2-(2,4-difluorophenyl)-2-hydroxy-3-(1H-1,2,4-triazol-1-yl)propyl)-1H-1,2,4-triazol-5(4H)-one” (2011).

Structures are written as SMILES. In brackets after ≈: the same amount, converted by molar mass.

What all share (type): functional
One test relates to Aspergillus fumigatus. In words: Antifungal activity against Aspergillus fumigatus by broth microdilution method. In general terms: Dilution methods test growth across graded concentrations, often in twofold steps.
Another test has as its system Cryptococcus neoformans. In words: Antifungal activity against Cryptococcus neoformans BLS108 after 72 hrs by micro-broth dilution method. As to conditions: BLS108, 72 h.
For test [1], the system named is Candida albicans. Kind of test: Antifungal activity against Candida albicans Y0109 after 24 hrs by micro-broth dilution method. Particulars: Y0109, 24 h.
For test [2], the system named is Candida albicans. In words: Antifungal activity against Candida albicans SC5314 after 24 hrs by micro-broth dilution method. Particulars: SC5314, 24 h.
A further test deals with Kluyveromyces marxianus. Kind of test: Antifungal activity against Candida kefyr by micro-broth dilution method.
In a further test the test system is Trichophyton rubrum. In words: Antifungal activity against Trichophyton rubrum by micro-broth dilution method.
For the next test, the system named is Candida parapsilosis. In words: Antifungal activity against Candida parapsilosis by micro-broth dilution method. Particulars: Lodderomyces parapsilosis.
In a further test the test system is Candida tropicalis. Kind of test: Antifungal activity against Candida tropicalis by micro-broth dilution method.

The term MIC80 denotes an inhibitory concentration at the 80% level, which refers to growth in some studies and to a panel of isolates in others. On to `O=c1n(-c2ccccc2)cnn1CC(O)(Cn1cncn1)c1ccc(F)cc1F` (racemic), for which the MIC80 in the test with Aspergillus fumigatus is above 64 µg/mL; against Cryptococcus neoformans, 64 µg/mL (≈ 161 µM); in the test on Candida albicans [1], 0.25 µg/mL (≈ 0.628 µM); against Candida albicans [2] it was 1 µg/mL (≈ 2.51 µM); against Kluyveromyces marxianus it was 0.25 µg/mL (≈ 0.628 µM); against Trichophyton rubrum, 16 µg/mL (≈ 40.2 µM). In addition, the MIC80 against Candida parapsilosis came to 4 µg/mL (≈ 10 µM); against Candida tropicalis, 0.25 µg/mL (≈ 0.628 µM).
With `O=c1n(-c2ccc(F)cc2)cnn1CC(O)(Cn1cncn1)c1ccc(F)cc1F` (racemic), the MIC80 was above 64 µg/mL with Aspergillus fumigatus; above 64 µg/mL in the test on Cryptococcus neoformans; 1 µg/mL (≈ 2.4 µM) in the test on Candida albicans [1]; 1 µg/mL (≈ 2.4 µM) in the test with Candida albicans [2]; 0.25 µg/mL (≈ 0.6 µM) in the test on Kluyveromyces marxianus; 64 µg/mL (≈ 154 µM) against Trichophyton rubrum. In addition, the values for the MIC80 against Candida parapsilosis and against Candida tropicalis were 4 µg/mL (≈ 9.61 µM) and 0.25 µg/mL (≈ 0.6 µM), respectively.
Consider `O=c1n(-c2ccc(Cl)cc2)cnn1CC(O)(Cn1cncn1)c1ccc(F)cc1F` (racemic), for which the MIC80 was above 64 µg/mL against Aspergillus fumigatus; 64 µg/mL (≈ 148 µM) in the test on Cryptococcus neoformans; 0.0625 µg/mL (≈ 0.144 µM) against Candida albicans [1]; 0.0625 µg/mL (≈ 0.144 µM) with Candida albicans [2]; 0.0156 µg/mL (≈ 0.036 µM) against Kluyveromyces marxianus; 16 µg/mL (≈ 37 µM) against Trichophyton rubrum. The figures for the MIC80 against Candida parapsilosis and against Candida tropicalis were 1 µg/mL (≈ 2.31 µM) and 0.0625 µg/mL (≈ 0.144 µM), respectively.
On to `O=c1n(-c2ccccc2Cl)cnn1CC(O)(Cn1cncn1)c1ccc(F)cc1F` (racemic), for which the MIC80 is above 64 µg/mL in the test with Aspergillus fumigatus; 64 µg/mL (≈ 148 µM) with Cryptococcus neoformans; 1 µg/mL (≈ 2.31 µM) against Candida albicans [1]; 1 µg/mL (≈ 2.31 µM) in the test with Candida albicans [2]; 0.25 µg/mL (≈ 0.578 µM) in the test with Kluyveromyces marxianus; 64 µg/mL (≈ 148 µM) in the test on Trichophyton rubrum. The values for the MIC80 in the test with Candida parapsilosis and against Candida tropicalis were 16 µg/mL (≈ 37 µM) and 1 µg/mL (≈ 2.31 µM), respectively.
For `O=c1n(-c2ccc(Br)cc2)cnn1CC(O)(Cn1cncn1)c1ccc(F)cc1F` (racemic), the MIC80 was above 64 µg/mL in the test on Aspergillus fumigatus; 16 µg/mL (≈ 33.5 µM) in the test on Cryptococcus neoformans; 0.156 µg/mL (≈ 0.327 µM) against Candida albicans [1]; 1 µg/mL (≈ 2.1 µM) in the test with Candida albicans [2]; 0.0156 µg/mL (≈ 0.0327 µM) with Kluyveromyces marxianus; 16 µg/mL (≈ 33.5 µM) in the test with Trichophyton rubrum. In addition, the MIC80 in the test on Candida parapsilosis came to 1 µg/mL (≈ 2.1 µM); in the test on Candida tropicalis it was 0.0625 µg/mL (≈ 0.131 µM).
With `Cc1ccc(-n2cnn(CC(O)(Cn3cncn3)c3ccc(F)cc3F)c2=O)cc1` (racemic), the MIC80 with Aspergillus fumigatus is above 64 µg/mL; against Cryptococcus neoformans, 64 µg/mL (≈ 155 µM); in the test with Candida albicans [1] it was 1 µg/mL (≈ 2.42 µM); against Candida albicans [2] it was 0.25 µg/mL (≈ 0.606 µM); in the test with Kluyveromyces marxianus, 0.25 µg/mL (≈ 0.606 µM); with Trichophyton rubrum, 64 µg/mL (≈ 155 µM). Further, the MIC80 in the test on Candida parapsilosis came to 4 µg/mL (≈ 9.7 µM); in the test on Candida tropicalis, 0.25 µg/mL (≈ 0.606 µM).
`COc1ccc(-n2cnn(CC(O)(Cn3cncn3)c3ccc(F)cc3F)c2=O)cc1` (racemic): the MIC80 in the test with Aspergillus fumigatus is above 64 µg/mL; in the test on Cryptococcus neoformans it was 16 µg/mL (≈ 37.3 µM); against Candida albicans [1], 0.0625 µg/mL (≈ 0.146 µM); with Candida albicans [2], 1 µg/mL (≈ 2.33 µM); with Kluyveromyces marxianus, 0.0625 µg/mL (≈ 0.146 µM); in the test on Trichophyton rubrum, 16 µg/mL (≈ 37.3 µM). The MIC80 in the test with Candida parapsilosis was 1 µg/mL (≈ 2.33 µM); against Candida tropicalis it was 0.0625 µg/mL (≈ 0.146 µM).
For `N#Cc1ccc(-n2cnn(CC(O)(Cn3cncn3)c3ccc(F)cc3F)c2=O)cc1` (racemic), the MIC80 against Aspergillus fumigatus was above 64 µg/mL; against Cryptococcus neoformans, above 64 µg/mL; in the test on Candida albicans [1], 1 µg/mL (≈ 2.36 µM); with Candida albicans [2] it was 1 µg/mL (≈ 2.36 µM); in the test on Kluyveromyces marxianus, 16 µg/mL (≈ 37.8 µM); in the test on Trichophyton rubrum, 64 µg/mL (≈ 151 µM). For the same molecule, the MIC80 in the test on Candida parapsilosis turned out to be 1 µg/mL (≈ 2.36 µM); in the test with Candida tropicalis, 4 µg/mL (≈ 9.45 µM).
As for `N#Cc1cccc(-n2cnn(CC(O)(Cn3cncn3)c3ccc(F)cc3F)c2=O)c1` (racemic), the MIC80 with Aspergillus fumigatus is above 64 µg/mL; against Cryptococcus neoformans it was 0.25 µg/mL (≈ 0.59 µM); against Candida albicans [1], 0.00024 µg/mL (≈ 0.000567 µM); in the test on Candida albicans [2] it was 0.00024 µg/mL (≈ 0.000567 µM); in the test with Kluyveromyces marxianus, 0.00024 µg/mL (≈ 0.000567 µM); in the test on Trichophyton rubrum, 4 µg/mL (≈ 9.45 µM). Further, the MIC80 in the test with Candida parapsilosis and against Candida tropicalis was 0.00024 µg/mL (≈ 0.000567 µM) each time.
`O=c1n(-c2ccc(Cl)c(Cl)c2)cnn1CC(O)(Cn1cncn1)c1ccc(F)cc1F` (racemic): the MIC80 in the test with Aspergillus fumigatus is above 64 µg/mL; in the test on Cryptococcus neoformans it was 0.25 µg/mL (≈ 0.535 µM); in the test on Candida albicans [1] it was 16 µg/mL (≈ 34.2 µM); against Candida albicans [2], 4 µg/mL (≈ 8.56 µM); against Kluyveromyces marxianus it was 16 µg/mL (≈ 34.2 µM); in the test with Trichophyton rubrum, above 64 µg/mL. The results for the MIC80 in the test with Candida parapsilosis and with Candida tropicalis were 16 µg/mL (≈ 34.2 µM) and 64 µg/mL (≈ 137 µM), respectively.
As for `O=c1n(-c2ccc([N+](=O)[O-])cc2)cnn1CC(O)(Cn1cncn1)c1ccc(F)cc1F` (racemic), the MIC80 was above 64 µg/mL in the test on Aspergillus fumigatus; 64 µg/mL (≈ 144 µM) against Cryptococcus neoformans; 1 µg/mL (≈ 2.26 µM) with Candida albicans [1]; 1 µg/mL (≈ 2.26 µM) against Candida albicans [2]; 0.25 µg/mL (≈ 0.564 µM) in the test with Kluyveromyces marxianus; 16 µg/mL (≈ 36.1 µM) in the test with Trichophyton rubrum. The MIC80 with Candida parapsilosis came out at 16 µg/mL (≈ 36.1 µM); in the test on Candida tropicalis, 0.25 µg/mL (≈ 0.564 µM).
In the case of `O=c1n(-c2nccs2)cnn1CC(O)(Cn1cncn1)c1ccc(F)cc1F` (racemic), the MIC80 was above 64 µg/mL against Aspergillus fumigatus; 64 µg/mL (≈ 158 µM) in the test with Cryptococcus neoformans; 1 µg/mL (≈ 2.47 µM) against Candida albicans [1]; 0.25 µg/mL (≈ 0.617 µM) with Candida albicans [2]; 1 µg/mL (≈ 2.47 µM) against Kluyveromyces marxianus; 16 µg/mL (≈ 39.5 µM) in the test with Trichophyton rubrum. Also, the values for the MIC80 against Candida parapsilosis and in the test with Candida tropicalis were 0.25 µg/mL (≈ 0.617 µM) and 1 µg/mL (≈ 2.47 µM), respectively.
Take `O=c1n(-c2nc(-c3ccc(Cl)cc3Cl)cs2)cnn1CC(O)(Cn1cncn1)c1ccc(F)cc1F` (racemic): the MIC80 with Aspergillus fumigatus is above 64 µg/mL; against Cryptococcus neoformans it was 64 µg/mL (≈ 116 µM); against Candida albicans [1], 16 µg/mL (≈ 29.1 µM); in the test with Candida albicans [2], 16 µg/mL (≈ 29.1 µM); against Kluyveromyces marxianus, 4 µg/mL (≈ 7.27 µM); in the test with Trichophyton rubrum, 64 µg/mL (≈ 116 µM). The MIC80 in the test with Candida parapsilosis came to 64 µg/mL (≈ 116 µM); against Candida tropicalis it was 16 µg/mL (≈ 29.1 µM).
As for `Cc1ccc(-n2cnn(CC(O)(Cn3cncn3)c3ccc(F)cc3F)c2=O)nc1` (racemic), the MIC80 with Aspergillus fumigatus is above 64 µg/mL; against Cryptococcus neoformans, 16 µg/mL (≈ 38.7 µM); in the test on Candida albicans [1], 4 µg/mL (≈ 9.68 µM); with Candida albicans [2], 4 µg/mL (≈ 9.68 µM); with Kluyveromyces marxianus it was 4 µg/mL (≈ 9.68 µM); in the test on Trichophyton rubrum it was 16 µg/mL (≈ 38.7 µM). Further, the results for the MIC80 against Candida parapsilosis and in the test with Candida tropicalis were 4 µg/mL (≈ 9.68 µM) and 64 µg/mL (≈ 155 µM), respectively.
As for `Cc1ccnc(-n2cnn(CC(O)(Cn3cncn3)c3ccc(F)cc3F)c2=O)c1` (racemic), the MIC80 was above 64 µg/mL against Aspergillus fumigatus; 0.00024 µg/mL (≈ 0.000581 µM) in the test with Cryptococcus neoformans; 0.00024 µg/mL (≈ 0.000581 µM) with Candida albicans [1]; 0.00024 µg/mL (≈ 0.000581 µM) against Candida albicans [2]; 0.0625 µg/mL (≈ 0.151 µM) against Kluyveromyces marxianus; 64 µg/mL (≈ 155 µM) with Trichophyton rubrum. Also, the MIC80 in the test on Candida parapsilosis and with Candida tropicalis was 0.00024 µg/mL (≈ 0.000581 µM) in each case.
In the case of `CC(=O)Nc1ccc(-n2cnn(CC(O)(Cn3cncn3)c3ccc(F)cc3F)c2=O)cc1` (racemic), the MIC80 against Aspergillus fumigatus was above 64 µg/mL; with Cryptococcus neoformans, above 64 µg/mL; in the test with Candida albicans [1] it was 4 µg/mL (≈ 8.78 µM); with Candida albicans [2] it was 16 µg/mL (≈ 35.1 µM); against Kluyveromyces marxianus, above 64 µg/mL; against Trichophyton rubrum, above 64 µg/mL. Also, the MIC80 against Candida parapsilosis and in the test with Candida tropicalis was 16 µg/mL (≈ 35.1 µM) each time.
Take `CCC(=O)Nc1ccc(-n2cnn(CC(O)(Cn3cncn3)c3ccc(F)cc3F)c2=O)cc1` (racemic): the MIC80 against Aspergillus fumigatus is above 64 µg/mL; in the test with Cryptococcus neoformans, above 64 µg/mL; against Candida albicans [1] it was 4 µg/mL (≈ 8.52 µM); with Candida albicans [2] it was 1 µg/mL (≈ 2.13 µM); against Kluyveromyces marxianus it was 64 µg/mL (≈ 136 µM); in the test with Trichophyton rubrum, above 64 µg/mL. For the same molecule, the values for the MIC80 in the test on Candida parapsilosis and against Candida tropicalis were 4 µg/mL (≈ 8.52 µM) and 16 µg/mL (≈ 34.1 µM), respectively.
Take `CCCC(=O)Nc1ccc(-n2cnn(CC(O)(Cn3cncn3)c3ccc(F)cc3F)c2=O)cc1` (racemic): the MIC80 was above 64 µg/mL in the test on Aspergillus fumigatus; above 64 µg/mL in the test with Cryptococcus neoformans; 4 µg/mL (≈ 8.27 µM) against Candida albicans [1]; 4 µg/mL (≈ 8.27 µM) with Candida albicans [2]; 16 µg/mL (≈ 33.1 µM) against Kluyveromyces marxianus; above 64 µg/mL in the test with Trichophyton rubrum. Besides, the MIC80 against Candida parapsilosis and with Candida tropicalis was 4 µg/mL (≈ 8.27 µM) each time.
